The results in this text go back to US7741281B2, “Hepatitis C virus inhibitors” (Bristol-Myers Squibb Company, priority 2005, dated 2010).

In general, IC50 refers to the concentration at which inhibition is half-maximal. A word on the EC50: it is the concentration giving half of the maximal effect.

Assay [1] has as its system human pancreatic chymotrypsin. Description: Specificity assay, chymotrypsin (pNA substrate). It is filed as biochemical. The conditions noted are these: read-out: Chymotrypsin activity in the specificity assays (IC50). As for the experimental part: (§1) The specificities of compounds of the present disclosure were determined against a variety of serine proteases: human neutrophil elastase (HNE), porcine pancreatic elastase (PPE) and human pancreatic chymotrypsin and one cysteine protease: human liver cathepsin B. In all cases, a 96-well plate format protocol using colorimetric p-nitroaniline (pNA) substrate or fluorometric Amino-Methyl-Coumarin (AMC) substrate, specific for each enzyme was used as described previously (PCT Patent Application No. WO 00/09543) with some modifications. All enzymes were purchased from Sigma or EMDbiosciences while the substrates were from Bachem.
(§2) Each pNA assay included a 2 h enzyme-inhibitor pre-incubation at room temperature followed by addition of substrate and hydrolysis to ˜15% conversion as measured on a Spectramax Pro microplate reader. The cathepsin B assay was initiated by adding substrate to a 10 min enzyme-inhibitor pre-incubation at room temperature, and the assay plate measured immediately using the Cytofluor Series 4000. Compound concentrations varied from 100 to 0.4 μM depending on their potency.
(§3) The final conditions for each assay were as follows: […]
(§4) The percentage of inhibition was calculated using the formula: [1−((UVinh−UVblank)/(UVctl−UVblank))]×100 […]

Assay [2] relates to HCV replicon in HUH-7 cells. Description: HCV replicon FRET assay. It is filed as cell-based, HCV strain 1b. The following applies: Hepatitis C virus. The text has this: An HCV replicon whole cell system was established as described by Lohmann V, Korner F, Koch J, Herian U, Theilmann L, Bartenschlager R., Science 285(5424):110-3 (1999). This system enabled us to evaluate the effects of our HCV Protease compounds on HCV RNA replication. Briefly, using the HCV strain 1b sequence described in the Lohmann paper (Assession number: AJ238799), an HCV cDNA was synthesized by Operon Technologies, Inc. (Alameda, Calif.), and the full-length replicon was then assembled in plasmid pGem9zf(+) (Promega, Madison, Wis.) using standard molecular biology techniques. The replicon consists of (i) the HCV 5′ UTR fused to the first 12 amino acids of the capsid protein, (ii) the neomycin phosphotransferase gene (neo), (iii) the IRES from encephalomyocarditis virus (EMCV), and (iv) HCV NS3 to NS5B genes and the HCV 3′ UTR. Plasmid DNAs were linearized with ScaI and RNA transcripts were synthesized in vitro using the T7 MegaScript transcription kit (Ambion, Austin, Tex.) according to manufacturer's directions. In vitro transcripts of the cDNA were transfected into the human hepatoma cell line, HUH-7. […] Resulting cell lines were characterized for positive and negative strand RNA production and protein production over time.
The HCV replicon FRET assay was developed to monitor the inhibitory effects of compounds described in the disclosure on HCV viral replication. HUH-7 cells, constitutively expressing the HCV replicon, were grown in Dulbecco's Modified Eagle Media (DMEM) (Gibco-BRL) containing 10% Fetal calf serum (FCS) (Sigma) and 1 mg/ml G418 (Gibco-BRL). Cells were seeded the night before (1.5×10^4 cells/well) in 96-well tissue-culture sterile plates. Compound and no compound controls were prepared in DMEM containing 4% FCS, 1:100 Penicillin/Streptomysin (Gibco-BRL), 1:100 L-glutamine and 5% DMSO in the dilution plate (0.5% DMSO final concentration in the assay). Compound/DMSO mixes were added to the cells and incubated for 4 days at 37° C. After 4 days, cells were first assessed for cytotoxicity using alamar Blue (Trek Diagnotstic Systems) for a CC50 reading. The toxicity of compound (CC50) was determined by adding 1/10th volume of alamar Blue to the media incubating the cells. After 4 hours, the fluorescence signal from each well was read, with an excitation wavelength at 530 nm and an emission wavelength of 580 nm, using the Cytofluor Series 4000 (Perspective Biosystems). Plates were then rinsed thoroughly with Phosphate-Buffered Saline (PBS) (3 times 150 μl). The cells were lysed with 25 μl of a lysis assay reagent containing an HCV protease substrate (5× cell Luciferase cell culture lysis reagent (Promega #El 53A) diluted to 1× with distilled water, NaCl added to 150 mM final, the FRET peptide substrate (as described for the enzyme assay above) diluted to 10 μM final from a 2 mM stock in 100% DMSO. […]. The plate was then placed into the Cytofluor 4000 instrument which had been set to 340 nm excitation/490 nm emission, automatic mode for 21 cycles and the plate read in a kinetic mode. EC50 determinations were carried out as described for the IC50 determinations.

For another assay, the target named is T1, human liver cathepsin B (Homo sapiens, UniProt P07858).
T1 construct: purchased Sigma or EMDbiosciences; host or cells: human liver (as named)
Description: Specificity assay, cathepsin B (AMC substrate). It counts as biochemical. The following applies: read-out: Cathepsin B activity in the specificity assays (IC50). Here is the method:
as §1, §2, §3, §4

Read-outs that look alike come from different tables or passages of the source. Some results are limits rather than exact numbers.

As for `COc1c(O[C@@H]2C[C@H]3C(=O)N[C@]4(C(=O)NS(=O)(=O)C5CC5)C[C@H]4/C=C\CCCCC[C@H](NC(=O)OC(C)(C)C)C(=O)N3C2)ccc2c(Cl)nccc12` [Compound 3], the IC50 in assay [1] was over 100 µM; on human liver cathepsin B it was 100 µM. In addition, the EC50 in assay [2] (96 h, HUH-7 replicon cells, 4 days, read-out: EC50 value in the replicon FRET assay) is 0.0146 µM; in assay [2] (Huh-7, HCV replicon, read-out: EC50 Activity Range) it was under 0.1 µM.
